The values below come from the supplement of paper PMC12137928.

Where a name gives a salt, the structure may show the parent alone.

The assay relates to HCT116. The following applies: 72 h. An outline of the steps: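 HCT116 cells went into 1536-well plates at 250 per well. CellTiter-Glo luminescence was expressed relative to vehicle (0%) and positive control (-100%) and then pattern-corrected. Both IC50 and maximal efficacy were taken from four-parameter Hill fits.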

Take `CC(C(=O)O)c1cccc(Oc2ccccc2)c1` (stereo not drawn) [Fenoprofen calcium salt dihydrate]: the IC50 cell viability by setting is: (ICRF193 0 nM) above 45.8 µM; (ICRF193 200 nM) above 45.8 µM.
Take `COc1cc(C)nc(-n2nc(C)cc2OC)n1` [Epirizole]: the IC50 cell viability by setting is: (ICRF193 0 nM) above 45.8 µM; (ICRF193 200 nM) above 45.8 µM.
Regarding `Cc1c[nH]c2ccccc12` [3-Methylindole], the IC50 cell viability runs as follows: (ICRF193 0 nM) above 45.8 µM; (ICRF193 200 nM) above 45.8 µM.
Compound `CCCCCCCCCCC(CO)CCCCCCCC` (stereo not drawn) [2-Octyl-1-dodecanol] had an IC50 cell viability (ICRF193 0 nM) above 45.8 µM and an IC50 cell viability (ICRF193 200 nM) above 45.8 µM.
Regarding `CC(OC(=O)NCC1(CC(=O)O)CCCCC1)OC(=O)C(C)C` (stereo not drawn) [GABAPENTIN ENACARBIL], the IC50 cell viability by setting is: (ICRF193 0 nM) above 45.8 µM; (ICRF193 200 nM) above 45.8 µM.
For the compound `O=C(O)Cc1cccc(-c2cc(CCCCCCc3ccc(O[C@H]4O[C@H](CO)[C@@H](O)[C@H](O)[C@@H]4O)c(-c4cccc(CC(=O)O)c4)c3)ccc2O[C@H]2O[C@H](CO)[C@@H](O)[C@H](O)[C@@H]2O)c1` [Bimosiamose], the IC50 cell viability runs as follows: (ICRF193 0 nM) above 45.8 µM; (ICRF193 200 nM) above 45.8 µM.
With `NS(=O)(=O)c1cc(C2(O)NC(=O)c3ccccc32)ccc1Cl` (stereo not drawn) [Chlorthalidone], the IC50 cell viability is, setting by setting: (ICRF193 0 nM) above 45.8 µM; (ICRF193 200 nM) above 45.8 µM.
`C=CCc1ccc(O)c(OC)c1` [Eugenol]: the IC50 cell viability is, setting by setting: (ICRF193 0 nM) above 45.8 µM; (ICRF193 200 nM) above 45.8 µM.
Take `CC(C)(C)NCC(O)c1cc(O)cc(O)c1` (stereo not drawn) [Terbutaline hemisulfate]: the IC50 cell viability is, setting by setting: (ICRF193 0 nM) above 45.8 µM; (ICRF193 200 nM) above 45.8 µM.
`Brc1c(NC2=NCCN2)ccc2nccnc12` [Brimonidine]: the IC50 cell viability by setting is: (ICRF193 0 nM) above 45.8 µM; (ICRF193 200 nM) above 45.8 µM.
Regarding `CC(C)(Sc1cc(C(C)(C)C)c(O)c(C(C)(C)C)c1)Sc1cc(C(C)(C)C)c(O)c(C(C)(C)C)c1` [Probucol], the IC50 cell viability reads like this: (ICRF193 0 nM) above 45.8 µM; (ICRF193 200 nM) above 45.8 µM.
Turning to `NC(=O)NC1NC(=O)NC1=O` (stereo not drawn) [Allantoin], the IC50 cell viability was above 45.8 µM (ICRF193 0 nM) and above 45.8 µM (ICRF193 200 nM).
For `Cc1cc(C(=O)NNCc2ccccc2)no1` [Isocarboxazid], the IC50 cell viability was above 45.8 µM (ICRF193 0 nM) and above 45.8 µM (ICRF193 200 nM).
As to `CCCCC(CC)COC(=O)c1ccccc1O` (stereo not drawn) [2-Ethylhexyl salicylate], the IC50 cell viability runs as follows: (ICRF193 0 nM) above 45.8 µM; (ICRF193 200 nM) above 45.8 µM.
Take `CCCN(CCC)C(=O)C(CCC(=O)O)NC(=O)c1ccccc1` (stereo not drawn) [Proglumide]: the IC50 cell viability was above 45.8 µM (ICRF193 0 nM) and above 45.8 µM (ICRF193 200 nM).
`CCCCOc1ccc(C(=O)CCN2CCCCC2)cc1` [Dyclonine hydrochloride] returned an IC50 cell viability (ICRF193 0 nM) above 45.8 µM and an IC50 cell viability (ICRF193 200 nM) above 45.8 µM.
Regarding `O=S(=O)(c1cccc2cnccc12)N1CCCNCC1` [Fasudil], the IC50 cell viability was above 45.8 µM (ICRF193 0 nM) and above 45.8 µM (ICRF193 200 nM).
Regarding `COC(F)(F)C(Cl)Cl` [Methoxyflurane], the IC50 cell viability is, setting by setting: (ICRF193 0 nM) above 45.8 µM; (ICRF193 200 nM) above 45.8 µM.
Consider `CNC(C)(C)Cc1ccccc1` [Mephentermine hemisulfate], for which the IC50 cell viability is, setting by setting: (ICRF193 0 nM) above 45.8 µM; (ICRF193 200 nM) above 45.8 µM.
`Cc1ccc(C(C)C)c(O)c1` [Thymol]: the IC50 cell viability was above 45.8 µM (ICRF193 0 nM) and above 45.8 µM (ICRF193 200 nM).
The compound `N[C@@H](CC(=O)N1CCn2c(nnc2C(F)(F)F)C1)Cc1cc(F)c(F)cc1F` [Sitagliptin] displayed an IC50 cell viability (ICRF193 0 nM) above 45.8 µM and an IC50 cell viability (ICRF193 200 nM) above 45.8 µM.
In turn, `CC(=O)OCC(=O)[C@@]1(O)[C@H](C)C[C@H]2[C@@H]3CCC4=CC(=O)C=C[C@]4(C)[C@@]3(F)[C@@H](O)C[C@@]21C` [Dexamethasone acetate] showed an IC50 cell viability (ICRF193 0 nM) above 45.8 µM and an IC50 cell viability (ICRF193 200 nM) above 45.8 µM.
Turning to `N[C@@H]1CCCCN(c2c(F)cc3c(=O)c(C(=O)O)cn(C4CC4)c3c2Cl)C1` [Besifloxacin Hydrochloride], the IC50 cell viability (ICRF193 0 nM) is above 45.8 µM and the IC50 cell viability (ICRF193 200 nM) was above 45.8 µM.
Take `O=C(O)CCC(=O)Nc1ccc(S(=O)(=O)Nc2nccs2)cc1` [Succinylsulfathiazole]: the IC50 cell viability is above 45.8 µM (ICRF193 0 nM) and above 45.8 µM (ICRF193 200 nM).
Take `C=CC[N@@+]12CC[C@@]34c5ccccc5N5/C=C6/[C@H]7C[C@H]8[C@@]9(CC[N@@+]8(CC=C)C/C7=C/CO)c7ccccc7N(/C=C(/[C@@H](C[C@@H]31)/C(=C\CO)C2)[C@H]54)[C@@H]69` [Alcuronium chloride]: the IC50 cell viability is, setting by setting: (ICRF193 0 nM) above 45.8 µM; (ICRF193 200 nM) above 45.8 µM.
Regarding `CCCCCCCCCCCCOS(=O)(=O)[O-].[Na+]` [Sodium dodecyl sulfate], the IC50 cell viability was above 45.8 µM (ICRF193 0 nM) and above 45.8 µM (ICRF193 200 nM).
Regarding `CCCCCCOc1ccccc1C(N)=O` [Exalamide], the IC50 cell viability by setting is: (ICRF193 0 nM) above 45.8 µM; (ICRF193 200 nM) above 45.8 µM.
Take `CC(=O)OCC(=O)[C@@]1(O)CC[C@H]2[C@@H]3CCC4=CC(=O)CC[C@]4(C)[C@H]3C(=O)C[C@@]21C` [Cortisone acetate]: the IC50 cell viability reads like this: (ICRF193 0 nM) above 45.8 µM; (ICRF193 200 nM) above 45.8 µM.
As to `COc1nc(C)nc(Cl)c1NC1=NCCN1` [Moxonidine hydrochloride hydrate], the IC50 cell viability was above 45.8 µM (ICRF193 0 nM) and above 45.8 µM (ICRF193 200 nM).
In the case of `C[C@]12CCC(=O)C=C1CC[C@@H]1[C@@H]2[C@@H](O)C[C@@]2(C)[C@H]1CC[C@]2(O)C(=O)CO` [Hydrocortisone], the IC50 cell viability by setting is: (ICRF193 0 nM) above 45.8 µM; (ICRF193 200 nM) above 45.8 µM.
As to `O=P1(N(CCCl)CCCl)NCCCO1` (stereo not drawn) [Cyclophosphamide], the IC50 cell viability runs as follows: (ICRF193 0 nM) above 45.8 µM; (ICRF193 200 nM) above 45.8 µM.
Take `CN(C)c1nc(N(C)C)nc(N(C)C)n1` [Altretamine]: the IC50 cell viability is above 45.8 µM (ICRF193 0 nM) and above 45.8 µM (ICRF193 200 nM).
As to `Cc1ncc(CO)c(CO)c1O` [Vitamin B6], the IC50 cell viability runs as follows: (ICRF193 0 nM) above 45.8 µM; (ICRF193 200 nM) above 45.8 µM.
For `CC(C)NCC(O)c1ccc(NS(C)(=O)=O)cc1` (stereo not drawn) [Sotalol], the IC50 cell viability was above 45.8 µM (ICRF193 0 nM) and above 45.8 µM (ICRF193 200 nM).
With `O=C(CCCN1CCC(n2c(=O)[nH]c3ccccc32)CC1)c1ccc(F)cc1` [Benperidol], the IC50 cell viability by setting is: (ICRF193 0 nM) above 45.8 µM; (ICRF193 200 nM) above 45.8 µM.
For `O=C1CC2(CCCC2)CC(=O)N1CCCCN1CCN(c2ncccn2)CC1` [Buspirone], the IC50 cell viability (ICRF193 0 nM) was above 45.8 µM and the IC50 cell viability (ICRF193 200 nM) is above 45.8 µM.
Take `CC(CC(C#N)(c1ccccc1)C(C)C)N(C)C` (stereo not drawn) [Isoaminile]: the IC50 cell viability (ICRF193 0 nM) was above 45.8 µM and the IC50 cell viability (ICRF193 200 nM) is above 45.8 µM.
For the compound `NS(=O)(=O)c1cc2c(cc1Cl)NC(C(Cl)Cl)NS2(=O)=O` (stereo not drawn) [Trichlormethiazide], the IC50 cell viability is, setting by setting: (ICRF193 0 nM) above 45.8 µM; (ICRF193 200 nM) above 45.8 µM.
As to `CN[C@@H]1[C@H](O[C@H]2[C@H](O[C@H]3[C@H](O)[C@@H](O)[C@H](N=C(N)N)[C@@H](O)[C@@H]3N=C(N)N)O[C@@H](C)[C@]2(O)C=O)O[C@@H](CO)[C@H](O)[C@H]1O` [Streptomycin sulfate], the IC50 cell viability was above 45.8 µM (ICRF193 0 nM) and above 45.8 µM (ICRF193 200 nM).
The compound `COc1ccc(-c2nc3cc(C4=NNC(=O)CC4C)ccc3[nH]2)cc1` (stereo not drawn) [Pimobendan] showed an IC50 cell viability (ICRF193 0 nM) above 45.8 µM and an IC50 cell viability (ICRF193 200 nM) above 45.8 µM.
Turning to `C[N+](C)(C)CCOP(=O)(O)OP(=O)([O-])OC[C@H]1O[C@@H](n2ccc(N)nc2=O)[C@H](O)[C@@H]1O` [CITICOLINE], the IC50 cell viability was above 45.8 µM (ICRF193 0 nM) and above 45.8 µM (ICRF193 200 nM).
Consider `COc1ccc(/C=C/C(=O)OCCC(C)C)cc1` [Amiloxate], for which the IC50 cell viability (ICRF193 0 nM) was above 45.8 µM and the IC50 cell viability (ICRF193 200 nM) was above 45.8 µM.
As for `O=C(O)CCNC(=O)c1ccc(/N=N/c2ccc(O)c(C(=O)O)c2)cc1` [Balsalazide disodium], the IC50 cell viability (ICRF193 0 nM) is above 45.8 µM and the IC50 cell viability (ICRF193 200 nM) was above 45.8 µM.
In the case of `CCCCCCOC(=O)NC(=N)c1ccc(NCc2nc3cc(C(=O)N(CCC(=O)OCC)c4ccccn4)ccc3n2C)cc1` [BIBR-1048], the IC50 cell viability was above 45.8 µM (ICRF193 0 nM) and above 45.8 µM (ICRF193 200 nM).
Regarding `CN(N=O)C(=O)N[C@@H](C=O)[C@@H](O)[C@H](O)[C@H](O)CO` [Streptozotocin], the IC50 cell viability was above 45.8 µM (ICRF193 0 nM) and above 45.8 µM (ICRF193 200 nM).
Regarding `Cc1cnc(NC(=O)C2=C(O)c3ccccc3S(=O)(=O)N2C)s1` [MELOXICAM SODIUM], the IC50 cell viability is, setting by setting: (ICRF193 0 nM) above 45.8 µM; (ICRF193 200 nM) above 45.8 µM.
Regarding `NC(=O)N/N=C/c1ccc([N+](=O)[O-])o1` [Nitrofurazone], the IC50 cell viability is, setting by setting: (ICRF193 0 nM) above 45.8 µM; (ICRF193 200 nM) above 45.8 µM.
On to `C[C@H](CCC(=O)O)[C@H]1CC[C@H]2[C@@H]3[C@H](O)C[C@@H]4C[C@H](O)CC[C@]4(C)[C@H]3C[C@H](O)[C@]12C` [Cholic Acid], for which the IC50 cell viability is, setting by setting: (ICRF193 0 nM) above 45.8 µM; (ICRF193 200 nM) above 45.8 µM.
Regarding `CCC(=O)O[C@H]1[C@H](O[C@@H]2[C@@H](C)[C@H](O[C@H]3C[C@@](C)(OC)[C@@H](O)[C@H](C)O3)[C@@H](C)C(=O)O[C@H](CC)[C@@](C)(O)[C@H](O)[C@@H](C)C(=O)[C@H](C)C[C@@]2(C)O)O[C@H](C)C[C@@H]1N(C)C` [Erythromycin propionate], the IC50 cell viability was above 45.8 µM (ICRF193 0 nM) and above 45.8 µM (ICRF193 200 nM).
As for `CCOC(=O)[C@H](CCc1ccccc1)N[C@H]1CCCN2CCC[C@@H](C(=O)O)N2C1=O` [Cilazapril], the IC50 cell viability reads like this: (ICRF193 0 nM) above 45.8 µM; (ICRF193 200 nM) above 45.8 µM.
In the case of `CC1(O)CCC(C(C)(C)O)CC1` (stereo not drawn) [p-Menthane-1,8-diol monohydrate], the IC50 cell viability is, setting by setting: (ICRF193 0 nM) above 45.8 µM; (ICRF193 200 nM) above 45.8 µM.
`NC(=S)NS(=O)(=O)c1ccc(N)cc1` [Sulfathiourea] returned an IC50 cell viability (ICRF193 0 nM) above 45.8 µM and an IC50 cell viability (ICRF193 200 nM) above 45.8 µM.
For `Clc1ccc(C(OCCN2CCCCC2)c2ccccc2)cc1` (stereo not drawn) [Cloperastine hydrochloride], the IC50 cell viability runs as follows: (ICRF193 0 nM) above 45.8 µM; (ICRF193 200 nM) above 45.8 µM.
On to `NCCS(=O)(=O)O` [Taurine], for which the IC50 cell viability reads like this: (ICRF193 0 nM) above 45.8 µM; (ICRF193 200 nM) above 45.8 µM.
